Data: paper PMC8896685 (PLoS ONE, 2022)
Numbered stars: 1 amine (or outer) side, 2 acyl side, 3 side chain; on linkers, the order of the positions; unused ones are H or OH. Square brackets hold non-standard residues; d marks the D form. Side chains are listed from the residue outwards. Peptide text beside a SMILES is read from it. * marks the point of attachment. C18 diacid = O=C(O)CCCCCCCCCCCCCCCCC(=O)*; γGlu = O=C(O)[C@H](CCC(=O)[*:2])N[*:1]; Desaminohistidyl = O=C(CCc1c[nH]cn1)*; AEEA = NCCOCCOCC(=O)O; Aib = CC(C)(N)C(=O)O

Tests used:
Mouse GCGR = target: T1, Mouse GCGR (Mus musculus, UniProt Q61606); experiment: Receptor potency, CRE-luciferase functional assay in BHK cells; type: cell-based; conditions: Mouse receptors, whole BHK cells, 3 h 37°C, value (95% CI)
T1 construct: a plasmid encoding either the glucagon receptor or the GLP-1 receptor from the relevant species; expressed in transfected cells
Protocol: The binding assay was performed on cell membranes in the presence of 1% (v/v) species-specific heparin-treated pooled plasma (Bioreclamation IVT, Westbury, NY) diluted in assay buffer (50 mM HEPES supplemented with 5 mM EGTA, 5 mM MgCl2, and 0.005% (v/v) Tween 20, pH7.4). […] Cells stably expressing an individual receptor of interest were grown at 5% CO2, 37°C in DMEM (supplemented with 10% FCS, 0.5 mg/ml G418 and 0.3 mg/ml hygromycin). Membrane preparations were made from cells harvested at approximately 80% confluence, washed and homogenized in 20 mM HEPES with 0.1 mM EDTA, pH 7.4. Protein concentration was determined, and the membranes were stored at -80°C until use. The membrane binding assay was performed in a 96-well OptiPlate (PerkinElmer) in a total volume of 200 μl. Test compounds were dissolved in 80% DMSO and further diluted in assay buffer. 50 μl of diluted plasma was added to the assay plate wells followed by addition of test compounds (25 μl), cell membranes (50 μl, 0.06 mg/ml), SPA beads (20 mg/ml in assay buffer) and radioligand (60,000 cpm/well, corresponding to 0.06 nM; 2200 Ci/mmol. Each assay plate was incubated for 2 h at 30°C, centrifuged at 1500 rpm for 10 minutes and counted in a TopCount NXT instrument (PerkinElmer).
Functional assays were performed on whole cells in the absence or presence of 100% species-specific heparin-treated pooled plasma (Bioreclamation IVT). […] The cells were cultured with DMEM (supplemented with GlutaMAX, 10% FBS, 0.5 mg/ml G418 and 0.3 mg/ml hygromycin) at 5% CO2 and 37°C. At approximately 80–90% confluence, cells were washed with PBS and harvested with Versene (Life Technologies, Carlsbad, CA). The cells were counted and plated into 96-well microtiter plates coated with poly-D-Lys (Corning BioCoat) with 5,000 cells/well and thereafter incubated overnight in growth media. The next day the media was changed to assay buffer (DMEM without phenol red, supplemented with GlutaMAX, 10 mM HEPES, 1% ovalbumin and 0.1% Pluronic F-68) or to 100% plasma. In the absence of plasma, compounds were diluted in assay buffer. In assays tested with plasma, compounds were diluted in pure plasma. Buffer was removed from the plates and 50 μl of test compound dilutions was added to the plates followed by 50 μl of plasma or the same buffer used for compound dilution. The assay plates were incubated for 3 h in a 5% CO2 incubator at 37°C. The plates were then transferred to room temperature for 15 min and 100 μl Steadylite Plus reagent (PerkinElmer) was added to each well. The plates were shaken for 30 min at room temperature while protected from light after which luminescence was measured.
For the receptor binding assays, logIC50 values were calculated using non-linear regression analysis. The error estimation was reported as the 95% confidence interval. […] The calculations were performed in GraphPad Prism 6.4 (GraphPad, San Diego, CA) and error estimation was expressed as the 95% confidence interval. […] Averages, error estimation, ratios and plasma shifts were all calculated on logIC50 or logEC50 values and transformed to the anti-log values for reporting purposes.

DIO mice = experiment: Subchronic effect on body weight, body composition and food intake in DIO mice; type: in vivo, mouse; conditions: 1–30 nmol/kg s.c. once daily, 4 weeks, plateau during last weeks
Source text: Male C57Bl/6J mice were purchased from Jackson Lab (Bar Harbour, ME) or Taconic, (Denmark). Male Sprague Dawley rats were purchased from Taconic (Denmark). Lean animals were fed regular chow diet (Altromin 1324, Brogaarden, Denmark). Obese animals were fed a high-fat diet, 45% kcal from fat (D12492, Research Diets, New Brunswick, NJ) from the age of 4–6 weeks in order to obtain a diet induced obese (DIO) phenotype. Animals were housed under temperature and humidity-controlled conditions in a 12:12 hr light:dark cycle (lights on at 6 a.m.). Rats were housed three per cage during high fat feeding and were single housed five weeks prior to study. Mice were single housed, two per cage, with a partitioning wall where possible. All animals had ad libitum access to diet and water, except when fasted prior to experimental procedures. Animals were acclimatized to study conditions (energy expenditure cages, daily mock handling etc) at least one week prior to first dose. […] At the time of study, animals were 20–30 weeks old with a body weight of 45–50 g (DIO mice) or approximately 600 g (DIO rats).
DIO mice received s.c. injections once daily for 4–5 weeks. Animals were dosed at different times of day to allow for assessment of glucose tolerance and other metabolic parameters at same time of day but at different time points in relation to dosing. […] Body composition was assessed in conscious animals by Magnetic Resonance (MR) scanning prior to initiation of treatment and at the end of the treatment period. Steady-state plasma parameters were assessed in non-fasted animals. Additional DIO mice (n = 4) were included for verification of 24-h peptide exposure in steady state. The mice received s.c. doses daily for 2 weeks (13 days) with 3 nmol/kg NN1177; 5 nmol/kg NN1151 or 5 nmol/kg NN1359, where after plasma sampled after t = 5 h (NN1177) or 6 h (NN1151, NN1359), 10 h (all co-agonists) and 24 h (all co-agonists) post-dosing was analysed for exposure.
Analogues were tested for subchronic effect in two different set-ups. […] The Cmax and Cmin animals were included in separate treatment groups and evaluated head-to-head for glucose tolerance and additional metabolic parameters at the end of the treatment period. […] IPGTT was performed as described above, but additionally blood was sampled from vena facialis of conscious animals at t = 210 min relative to the administration of glucose for exposure analysis.
IPGTT was performed as described above.
All in vivo data are presented as mean ±SEM. […] For the comparison of NN1177, NN1151 and NN1359 on glucose tolerance, vehicle-subtracted values were used to enable comparison across studies.

in vivo = conditions: rat, iv
Protocol: Compound exposure was measured by Luminescence Oxygen Channeling Immunoassay (LOCI). […] The three reactants were combined with the analyte and formed a two-sited immuno-complex. Illumination of the complex released singlet oxygen […] from the donor beads. They were channeled into the acceptor beads and triggered a chemiluminescence response which was measured in an EnVision plate reader (PerkinElmer). The amount of light was proportional to the concentration of the analyte. As calibrators, a dilution line of the relevant analyte in rat/mouse plasma was included.
At t=0, 5 min, 10 min, 30 min, 2 h, 4 h, 8 h, 12 h, 24 h, 32 h, 48 h, 56 h, and 72 h post dosing, plasma was sampled from the sublingual plexus for analysis of plasma exposure measured by LOCI.
Plasma concentration-time profiles were analysed using non-compartmental analysis (NCA) using Phoenix WinNonlin Professional 6.3 (Pharsight, Mountain View, CA, US). Calculations were performed using full concentration-time profile values or sparse sampling concentration-time values as appropriate.

T1 sequence (Q61606 27-485): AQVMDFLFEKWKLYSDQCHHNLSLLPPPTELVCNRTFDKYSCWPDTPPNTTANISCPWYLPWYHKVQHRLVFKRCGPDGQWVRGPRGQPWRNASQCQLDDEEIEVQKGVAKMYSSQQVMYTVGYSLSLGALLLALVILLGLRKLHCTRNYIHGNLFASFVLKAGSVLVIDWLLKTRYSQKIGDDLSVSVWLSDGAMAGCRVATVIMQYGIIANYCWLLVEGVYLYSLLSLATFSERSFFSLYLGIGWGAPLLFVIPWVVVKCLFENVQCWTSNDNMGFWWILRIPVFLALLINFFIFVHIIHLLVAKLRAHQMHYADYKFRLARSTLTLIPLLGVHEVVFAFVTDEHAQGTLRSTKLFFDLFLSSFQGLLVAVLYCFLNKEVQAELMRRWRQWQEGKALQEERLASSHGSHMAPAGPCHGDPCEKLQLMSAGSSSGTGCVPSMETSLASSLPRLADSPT

Compound: CC[C@H](C)[C@H](NC(=O)[C@H](Cc1ccccc1)NC(=O)[C@H](CCC(=O)O)NC(=O)[C@H](CCCNC(=N)N)NC(=O)[C@H](C)NC(=O)[C@H](C)NC(=O)[C@H](CCC(N)=O)NC(=O)[C@H](CCC(=O)O)NC(=O)[C@H](CCC(=O)O)NC(=O)[C@H](CC(C)C)NC(=O)[C@H](Cc1ccc(O)cc1)NC(=O)[C@H](CCCCN)NC(=O)[C@H](CO)NC(=O)[C@@H](NC(=O)[C@H](CC(=O)O)NC(=O)[C@H](CO)NC(=O)[C@@H](NC(=O)[C@H](Cc1ccccc1)NC(=O)[C@@H](NC(=O)CNC(=O)[C@H](Cc1c[nH]cn1)NC(=O)C(C)(C)NC(=O)CCc1c[nH]cn1)[C@@H](C)O)[C@@H](C)O)C(C)C)C(=O)N[C@@H](C)C(=O)N[C@@H](Cc1c[nH]c2ccccc12)C(=O)N[C@@H](CC(C)C)C(=O)N[C@@H](CC(C)C)C(=O)N[C@@H](CCCCNC(=O)COCCOCCNC(=O)COCCOCCNC(=O)CC[C@H](NC(=O)CC[C@H](NC(=O)CCCCCCCCCCCCCCCCC(=O)O)C(=O)O)C(=O)O)C(=O)N[C@H](C(N)=O)[C@@H](C)O [NN1359] (Desaminohistidyl-[Aib]HGTFTSDVSKYLEEQAAREFIAWLLK([AEEA-AEEA-γGlu-γGlu-C18 diacid])T-NH2)
- EC50 (Mouse GCGR; GCGR EC50, pM (95% CI) 0% plasma, 0% plasma): 29.7 pM
- EC50 (Mouse GCGR; GCGR EC50, pM (95% CI) 100% plasma, 100% species-specific plasma): 2540 pM
- Body weight loss (DIO mice): 10–30%
- half-life (in vivo): 11 h
